Assays:
LRRK2(human) WT = LRRK2(human) WT (Homo sapiens, UniProt Q5S007); test: LRRK2 WT assay (assay A), Lanthascreen TR-FRET; assay type: biochemical; details: assay A (values without "*"): full-length LRRK2 wild type, 500uM ATP
LRRK2-G2019S(human) = biological target: T1, LRRK2-G2019S(human) (Homo sapiens, UniProt Q5S007, G2019S); test: LRRK2-G2019S Kinase activity assay (Lanthascreen TR-FRET); assay type: biochemical; details: full-length LRRK2 G2019S, LRRKtide substrate, 1.1mM ATP
T1 construct: DYKDDDDK (FLAG)
Procedure: LRRK2-G2019S Kinase activity assay: The measurements of the activities were made using a LRRK2-G2019S(human) Kinase activity assay as described hereunder. The potency of compounds was evaluated in vitro using the Lanthascreen® technology (ThermoFisher Scientific).
The biological assay requires the […]-tagged full-length LRRK2 G2019S protein, the fluorescent peptide substrate named LRRKtide or ERM ([…] supplied by PolyPeptide Group), the ATP substrate, and different concentrations of test compounds. In a typical experiment, the reaction assay buffer contains 50mM Tris pH8.2, 1mM EGTA, 2.5mM MgCl2, 0.05% Triton X100, 0.15% BSA and 1mM DTT. The detection of the assay is performed using 1nM Terbium labeled anti-phospho-LRRKtide (ThermoFisher Scientific) diluted in a TR-FRET buffer (ThermoFisher Scientific).
The experimental procedure was performed with Greiner small volume® 384-well. The assay is started by a pre-incubation step of full-length LRRK2 G2019S mutant protein with reaction assay buffer and a dilution series of test compound for at least 30 minutes at room temperature. The working solution of compounds was prepared in a separate Greiner microplate.
The kinase reaction was initiated by addition of the ATP/LRRKtide substrate mix diluted in the reaction assay buffer. The reaction mix was incubated for at least 10 minutes at room temperature (initial velocity conditions). Reaction was stopped by addition of Terbium labeled anti-phospho-LRRKtide diluted into the detection buffer supplemented with EDTA (ThermoFisher Scientific). Plates are incubated for at least 30 minutes at room temperature and read on an Envision™ multimode plate reader (PerkinElmer) with LanthaScreen™. The TR-FRET 520:495 nm emission ratio was calculated and used to determine the IC50 value from a dose response curve fit to the 4-parameter logistic equation. The activity with respect to LRRK2 kinase in this test is given by the concentration which inhibits 50% of the LRRK2 activity (or IC50) in nM.

T1 sequence (Q5S007 whole entry G2019S): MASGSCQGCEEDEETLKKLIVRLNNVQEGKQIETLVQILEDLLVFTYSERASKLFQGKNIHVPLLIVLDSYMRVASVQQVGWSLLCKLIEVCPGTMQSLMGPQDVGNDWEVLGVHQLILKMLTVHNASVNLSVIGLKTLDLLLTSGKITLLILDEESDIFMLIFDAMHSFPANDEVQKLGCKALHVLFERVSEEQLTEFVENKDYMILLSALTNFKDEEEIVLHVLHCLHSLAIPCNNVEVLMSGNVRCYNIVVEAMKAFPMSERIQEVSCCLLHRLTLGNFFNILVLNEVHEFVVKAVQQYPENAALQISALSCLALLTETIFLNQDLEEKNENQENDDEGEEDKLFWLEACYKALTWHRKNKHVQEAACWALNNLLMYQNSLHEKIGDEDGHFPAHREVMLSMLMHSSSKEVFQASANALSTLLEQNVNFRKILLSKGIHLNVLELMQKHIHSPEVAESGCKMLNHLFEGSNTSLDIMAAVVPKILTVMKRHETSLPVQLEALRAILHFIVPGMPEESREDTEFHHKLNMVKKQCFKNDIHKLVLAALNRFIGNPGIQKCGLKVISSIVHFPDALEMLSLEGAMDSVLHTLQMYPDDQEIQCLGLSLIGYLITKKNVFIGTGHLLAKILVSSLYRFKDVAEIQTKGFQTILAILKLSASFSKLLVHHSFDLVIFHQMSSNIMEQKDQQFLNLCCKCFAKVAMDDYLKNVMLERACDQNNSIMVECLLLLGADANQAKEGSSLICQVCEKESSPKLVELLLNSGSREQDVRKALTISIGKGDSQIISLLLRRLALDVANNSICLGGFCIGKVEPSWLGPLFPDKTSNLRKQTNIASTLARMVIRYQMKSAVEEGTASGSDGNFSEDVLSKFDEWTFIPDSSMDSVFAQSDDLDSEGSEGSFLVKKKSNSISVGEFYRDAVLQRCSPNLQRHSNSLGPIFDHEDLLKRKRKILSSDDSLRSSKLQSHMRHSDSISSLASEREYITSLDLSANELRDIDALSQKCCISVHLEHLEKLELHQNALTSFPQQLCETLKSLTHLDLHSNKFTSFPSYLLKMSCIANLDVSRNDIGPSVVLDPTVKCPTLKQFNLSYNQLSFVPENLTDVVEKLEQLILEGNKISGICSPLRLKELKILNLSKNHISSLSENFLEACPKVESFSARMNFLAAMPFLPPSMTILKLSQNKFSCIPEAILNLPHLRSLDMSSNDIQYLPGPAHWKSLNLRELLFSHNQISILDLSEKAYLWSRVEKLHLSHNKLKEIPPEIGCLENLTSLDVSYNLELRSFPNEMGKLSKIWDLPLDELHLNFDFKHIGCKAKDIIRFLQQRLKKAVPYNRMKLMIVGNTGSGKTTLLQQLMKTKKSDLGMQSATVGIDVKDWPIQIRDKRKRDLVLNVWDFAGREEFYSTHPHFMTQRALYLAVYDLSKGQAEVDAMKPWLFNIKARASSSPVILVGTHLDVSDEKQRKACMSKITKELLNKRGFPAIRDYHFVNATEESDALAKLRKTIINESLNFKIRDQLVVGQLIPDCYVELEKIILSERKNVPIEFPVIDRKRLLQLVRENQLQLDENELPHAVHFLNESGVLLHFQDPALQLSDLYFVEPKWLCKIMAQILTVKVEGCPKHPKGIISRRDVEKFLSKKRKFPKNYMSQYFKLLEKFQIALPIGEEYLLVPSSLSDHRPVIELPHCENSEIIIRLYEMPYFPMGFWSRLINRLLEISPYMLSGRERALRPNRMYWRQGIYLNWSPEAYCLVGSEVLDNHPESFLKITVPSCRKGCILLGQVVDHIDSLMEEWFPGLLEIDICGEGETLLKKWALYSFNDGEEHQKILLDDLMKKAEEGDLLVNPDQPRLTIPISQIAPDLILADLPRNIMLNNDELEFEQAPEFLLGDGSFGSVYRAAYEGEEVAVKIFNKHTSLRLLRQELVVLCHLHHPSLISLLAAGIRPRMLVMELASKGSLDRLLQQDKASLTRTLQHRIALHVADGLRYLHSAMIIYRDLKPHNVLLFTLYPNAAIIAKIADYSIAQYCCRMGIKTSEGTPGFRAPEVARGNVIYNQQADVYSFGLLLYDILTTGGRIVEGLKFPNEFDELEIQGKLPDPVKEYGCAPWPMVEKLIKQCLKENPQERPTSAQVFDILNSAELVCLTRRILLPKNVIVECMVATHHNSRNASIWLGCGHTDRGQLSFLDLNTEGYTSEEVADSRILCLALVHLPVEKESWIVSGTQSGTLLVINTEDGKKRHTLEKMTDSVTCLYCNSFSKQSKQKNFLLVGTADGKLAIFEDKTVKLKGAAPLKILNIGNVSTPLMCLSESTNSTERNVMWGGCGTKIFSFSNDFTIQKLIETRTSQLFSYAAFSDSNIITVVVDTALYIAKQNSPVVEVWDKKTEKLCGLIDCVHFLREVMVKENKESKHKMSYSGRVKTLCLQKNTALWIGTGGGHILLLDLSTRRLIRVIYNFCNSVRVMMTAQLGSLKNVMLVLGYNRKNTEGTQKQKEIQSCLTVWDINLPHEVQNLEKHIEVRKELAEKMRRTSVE
Sequence of LRRK2(human) WT (Q5S007 whole entry): as the sequence (Q5S007 whole entry G2019S) above, with S2019G counted along it

IC50 (LRRK2(human) WT) [nM]	IC50 (LRRK2-G2019S(human)) [nM]	SMILES
2	2	CC(=O)N1CC(Oc2nn(C)cc2Nc2ncc3cc(C#N)n([C@H]4COC[C@@H]4C)c3n2)C1(C)C (single isomer, unassigned) [Example 18]
–	5	COCC(C)n1c(C#N)cc2cnc(Nc3cn(C)nc3OC3COC3C)nc21 (single isomer, unassigned) [Example 87, 7-[(1S)-2-methoxy-1-methyl-ethyl]-2-[[1-methyl-3-[(2S, 3R)-2-methyloxetan-3-yl]oxy-pyrazol-4-yl]amino]pyrrolo[2,3-d]pyrimidine-6-carbonitrile or 7-[(1S)-2-methoxy-1-methyl-ethyl]-2-[[1-methyl-3-[(2R, 3S)-2-methyloxetan-3-yl]oxy-pyrazol-4-yl]amino]pyrrolo[2,3-d]pyrimidine-6-carbonitrile]
3	3	CC(=O)N1CC(Oc2nn(C)cc2Nc2ncc3cc(C#N)n([C@H]4COC[C@@H]4C)c3n2)C1(C)C (single isomer, unassigned) [Example 17]
–	5	[2H]C([2H])([2H])n1cc(Nc2ncc3cc(C#N)n(C(C)COC)c3n2)c(OC2COC2C)n1 (single isomer, unassigned) [Example 89, 7-[(1S)-2-methoxy-1-methyl-ethyl]-2-[[3-[(2S,3R)-2-methyloxetan-3-yl]oxy-1-(methyl-d3)pyrazol-4-yl]amino]pyrrolo[2,3-d]pyrimidine-6-carbonitrile or 7-[(1S)-2-methoxy-1-methyl-ethyl]-2-[[3-[(2R,3S)-2-methyloxetan-3-yl]oxy-1-(methyl-d3)pyrazol-4-yl]amino]pyrrolo[2,3-d]pyrimidine-6-carbonitrile]

From patent publication EP4105218A1, “SUBSTITUTED PYRROLO[2,3-D] PYRIMIDINES, THEIR PREPARATION AND THEIR THERAPEUTIC APPLICATION” (SANOFI, priority 2021, dated 2022)
